Results: publication PMC12339378 (Molecular Psychiatry, 2025)

Assays:
[1] = test system: HCN channel Ih currents in VTA DA neurons; type: cell-based, mice
[2] = cited from earlier work
VTA DA neurons = type: cell-based, mice; details: 750 µM local application for 3 min; cell-attached; average

Row | Structure (SMILES) | percent inhibition of Ih currents in VTA DA neurons [1] | ability to cross the blood-brain barrier (BBB) [2] | percent inhibition of firing rate in VTA DA neurons (VTA DA neurons)
1 | COc1ccc(C(F)(F)CN(C)CCCN2CCc3cc(OC)c(OC)cc3CC2=O)cc1OC [compound 8] | no efficacy | – | –
2 | COc1cc2c(cc1OC)CC(=O)N(C[C@H]1CCCN(CCOc3ccccc3)C1)CC2 [compound 3] | less efficacious than Cilobradine | – | –
3 | COc1cc2c(cc1OC)CC(=O)N(CCCN(C)C[C@H]1Cc3cc(OC)c(OC)cc31)CC2 [Ivabradine] | significant inhibition of the Ih current | limited abilities to cross the blood-brain barrier | 61.1%
4 | COc1cc2c(cc1OC)CC(=O)N(C[C@H]1CCCN(CCOc3ccccc3F)C1)CC2 [compound 4] | less efficacious than Cilobradine | – | –
5 | COc1cc2c(cc1OC)CC(=O)N(C[C@H]1CCCN(C(=O)OC(C)(C)C)C1)CC2 [compound 11] | less than half the efficacy of Cilobradine | – | –
6 | COc1ccc(CCN(C)CCCN2CCc3cc(OC)c(OC)cc3CC2=O)cc1OC [Zatebradine] | significant inhibition of the Ih current | – | 59.7%
7 | COc1ccc(CCN2CCO[C@H](CN3CCc4cc(OC)c(OC)cc4CC3=O)C2)cc1OC [compound 6] | less efficacious than Cilobradine | – | –
